Data reported in patent US7897620B2, “Methods of using anti-inflammatory compounds” (Cambridge Enterprise Limited, priority 2007, dated 2011).

What was measured:
[1] = tested on: C5a induced neutrophil migration; experiment: ChemoTx transwell migration assay, C5a induced migration of neutrophils (non-chemokine chemoattractant); assay type: cell-based; settings: highest concentration tested 1 μM, read-out: ED50 C5a neutrophils
Procedure: (§1) In principle, this assay consists of two chambers separated by a porous membrane. The chemoattractant is placed in the lower compartment and the cells are placed in the upper compartment. After incubation for a period at 37° C. the cells move towards the chemoattractant, and the number of cells in the lower compartment is proportional to the chemoattractant activity (relative to a series of controls).
(§2) Next, the chemoattractant solution to be placed in the lower compartment is prepared. For example, MCP-1 is diluted in GBSS+BSA to give a final concentration of 25 ng/ml. This is divided into two pots, as for the cell suspension. To one pot, the test compound is added to the same final concentration as was added to the cell suspension, while to the other pot an equal volume of GBSS+BSA plus vehicle as appropriate (e,g. not more than 1% DMSO) is added. Alternatively, other chemokines may be used (SDF-1α at 7.5 ng/ml; RANTES at 50 ng/ml; IL-8 at 10 ng/ml using neutrophils as the target cell population). In each case it is important to determine (in a separate experiment) the concentration of each chemokine which causes maximal stimulation of migration of the chosen target leukocyte population. […]
(§3) The number of cells migrated into the lower chamber under each condition can then be determined by a number of methods, including direct counting, labelling with fluorescent or radioactive markers or through the use of a vital dye. […] 3 μl of stock MTT solution are added to each well, and then the plate is incubated at 37° C. for 1-2 hours during which time dehydrogenase enzymes within the cells convert the soluble MTT to an insoluble blue formazan product that can be quantified spectrophotometrically. […]
(§4) At the end of this incubation, the liquid is carefully removed from the lower chambers, taking care not to disturb the precipitated formazan product. After allowing to air dry briefly, 20 μl of DMSO is added to each lower chamber to solubilise the blue dye, and absorbance at 595 nm is determined using a 96-well plate reader. […]

[2] = Identification of the primary metabolites in pooled 24 h urine (LC-MS-MS full scan); assay type: in vivo; settings: rat, single oral dose 3 mg/kg in 1% CMC, qualitative
Procedure: Urine was collected from rats exposed to a single oral dose (3 mg/kg in 1% CMC) of each compound over a 24 hour period in metabolic cages. The pooled urine sample was then subjected to full scan mass spectral analysis, using the same LC-MS conditions as described in example 1 above. Further MS-MS analysis of the product ions was then performed, and likely fragmentations/re-arrangements assigned from the publicly available Metabolite ID database.
For the major metabolites, the assigned structures were confirmed by synthesis of authentic samples, using methods well known in the art, which were subject to LC-MS-MS analysis under the same conditions as the urine samples.
Note that metabolite ID studies provide only qualitative estimates of the relative amounts of the different metabolites present, and separately validated assays with appropriate internal standards would be required to quantitate each metabolite species.
The detected metabolites, in rank order of concentration detected are shown in FIG. 2 for the five compounds analysed. It is important to note that the methodology used here is not necessarily exhaustive, and further (particularly minor) metabolites may also be present which were below the detection limits for the methods applied here. As a general rule, it can be assumed that metabolites representing 10% or more of the injected dose will be detected (though not necessarily structurally identified) by the methods used here).

[3] = tested on: target receptor (site of specific interaction of BN83250) (Homo sapiens); experiment: Competition for specific binding of [3H]-BN83250 to human myelomonocytic cell line; settings: competition binding curve, non-linear modelling
Procedure: The general pharmacology of the five compounds was assessed, both against the specific target receptor, and against a wide variety of other receptors, many related in structure to the target receptor. Specific binding to the target receptor was assessed by competition for the binding of [^3H]-BN83250 (BN83250 is (S)-3-(2′,2′-dimethyldodecanoylamino)-caprolactam; Fox et al. J Med Chem. […]; 48(3):867-74; an agent known to bind to the same target receptor as the lactam BSCIs disclosed here). Binding to non-target receptors was assessed by competition for the binding of various specific radioligands for other receptors which are well known in the art.
For specific binding the human myelomonocytic cell line was resuspended in binding buffer (20 mM HEPES, 150 mM NaCl, pH 7.4; 10^6 cells per reaction) at 4° C. in the presence of 10 nM [^3]-BN83250 (from 1 μM stock in 100% ethanol; 30 Ci/mmol) and various competitors (1% DMSO maximum vehicle concentration). Reactions were incubated for 2 hours on ice, then filtered through GF/C filters pre-soaked in 0.5% polyethyeneimine. Unbound material was washed away with 5×5 ml ice cold washing buffer (20 mM HEPES, 150 mM NaCl, pH 7.4) under a slow vacuum.
Competition for the specific [^3H]-BN83250 with compounds (I′), (II) and (V) was then determined at various concentrations from 1 μM to 10 μM. Compounds (III) and (IV) were not examined in these experiments.
Non-linear modelling was then applied to the competition binding curves for the various compounds, in order to compare their properties as agents binding to the target receptor (defined as the site of specific interaction of BN83250).

[4] = tested on: IL-8 induced neutrophil migration; experiment: ChemoTx transwell migration assay, IL-8 induced migration of neutrophils; assay type: cell-based; settings: maximal dose of chemoattractant, read-out: ED50 IL-8 neutrophils
Procedure: as §1, §2, §3, §4

Chain of target receptor (site of specific interaction of BN83250) (Homo sapiens) (P30874 whole entry): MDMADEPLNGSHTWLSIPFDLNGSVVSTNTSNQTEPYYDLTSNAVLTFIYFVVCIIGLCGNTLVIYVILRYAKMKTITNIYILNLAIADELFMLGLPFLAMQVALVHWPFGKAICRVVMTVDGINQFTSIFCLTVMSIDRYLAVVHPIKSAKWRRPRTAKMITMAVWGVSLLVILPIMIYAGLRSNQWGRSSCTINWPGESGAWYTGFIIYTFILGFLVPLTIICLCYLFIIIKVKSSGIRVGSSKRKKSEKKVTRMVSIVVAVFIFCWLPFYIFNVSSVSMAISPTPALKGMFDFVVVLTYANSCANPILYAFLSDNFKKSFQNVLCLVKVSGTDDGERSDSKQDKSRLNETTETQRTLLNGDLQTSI

Compound	EC50 [1]	major metabolite / route of metabolism detected in urine [2]	Hill slope [3]	EC50 [4]
O=C1NCCCC[C@@H]1NC(=O)C12CC3CC(CC(C3)C1)C2 [(II), 3-(adamantane-1-carbonylamino)-caprolactam]	> 1000 nM	cytochrome P450-mediated hydroxylation	−0.5	0.6 nM
CC(C)(C)C(=O)N[C@H]1CCCNC1=O [Compound (I′), 3-(2′,2′-dimethylpropanoylamino)-tetrahydropyridin-2-one]	> 1000 nM	no significant metabolites of (I′) were detected in urine	−1.0	0.6 nM
O=C1NCCCC[C@@H]1NC(=O)C12CC3CC(CC(O)(C3)C1)C2 [(V), 3-(3′-hydroxyadamantyl-1-carbonylamino)-caprolactam]	> 1000 nM	the glucuronidated compound was the major metabolite	−0.5	0.5 nM
CC(C)(C)S(=O)(=O)N[C@H]1CCCCNC1=O [(IV), 3-(1′,1′-dimethylethylsulfonylamino)-caprolactam]	–	the major metabolite could not be identified	–	–
